The structures appear in SMILES notation.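 Cultured in 96-well plates, cells were exposed to test compound for 48 hours across five concentrations. TGI: concentration producing complete growth inhibition.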 Some results are limits rather than exact numbers.

Assay in all cases: inhibition of tumour cell growth, NCI panel, 48 h
Experiment [1] concerns NCI/ADR-RES ovarian.
The test system of experiment [2] is SNB-19 CNS.
Experiment [3] deals with SK-MEL-2 melanoma.
The test system of experiment [4] is A549 NSCLC.
Experiment [5] has as its system HT29 colon.
In experiment [6] the test system is UACC-62 melanoma.
Experiment [7] concerns 786-0 renal.
Experiment [8] relates to SF-268 CNS.
Experiment [9] has as its system NCI-H522 lung.
The test system of experiment [10] is BT-549 breast.
The test system of experiment [11] is MCF7 breast.
Experiment [12] has as its system SK-MEL-5 melanoma.
For experiment [13], the system named is A498 renal.
Experiment [14] concerns SNB-75 CNS.
Experiment [15] has as its system NCI-H460 lung.
For experiment [16], the system named is OVCAR-3 ovarian.
Experiment [17] deals with SW-620 colon.
For experiment [18], the system named is UO-31 renal.
Experiment [19] has as its system MOLT-4 leukemia.

Take `FC(F)(F)c1ccc(Cc2nc3cc4ccccc4cc3[nH]2)cc1`: the TGI in [1], in experiment [2], in experiment [3], in [4], in experiment [5] and in experiment [6] was greater than 100 µM throughout. The TGI in experiment [7], in experiment [8], in experiment [9], in experiment [10], in experiment [11] and in experiment [12] was greater than 100 µM throughout. Besides, the TGI in [13] is greater than 100 µM; in experiment [14] it was 36.1 µM; in experiment [15], greater than 100 µM; in experiment [16], greater than 100 µM; in experiment [17] it was greater than 100 µM; in [18] it was greater than 100 µM.
For `NC1=NC2=c3ccccc3=C(c3cnccn3)C2(c2cnccn2)c2ccccc21` (centres undefined), the TGI in experiment [2], in experiment [3], in experiment [4], in experiment [5], in [6] and in experiment [7] was greater than 100 µM throughout. The TGI in experiment [8] is greater than 100 µM; in experiment [9], greater than 100 µM; in experiment [12] it was greater than 100 µM; in experiment [19], 95.8 µM; in experiment [13], 69.1 µM; in [14], greater than 100 µM. In addition, the TGI in [15] is greater than 100 µM; in experiment [16], 81.4 µM; in experiment [17] it was greater than 100 µM; in [18], greater than 100 µM.
With `O=C(Cn1cc(-c2ccccc2)nn1)NC1CCCCC1`, the TGI in experiment [1], in [2], in experiment [3], in [4], in [5] and in [7] was greater than 100 µM in each case. Further, the TGI in experiment [8], in experiment [9], in [10], in experiment [11], in [12] and in experiment [19] was greater than 100 µM in each case. For the same compound, the TGI in [14], in experiment [15] and in [17] was greater than 100 µM each time.
Consider `COc1ccccc1C1C(Cl)C(=O)N1n1cnc2ccccc2c1=O` (centres undefined), for which the TGI in [2], in experiment [3], in experiment [4], in [5], in experiment [6] and in [7] was greater than 100 µM each time. Also, the TGI in experiment [8], in experiment [9], in experiment [12], in experiment [19], in experiment [14] and in experiment [15] was greater than 100 µM throughout. Besides, the TGI in [16], in experiment [17] and in [18] was greater than 100 µM each time.
Consider `COC(=O)C(=O)C(C(=O)C(=O)Nc1cccc(C(C)=O)c1)c1nc2ccc([N+](=O)[O-])cc2[nH]c1=O` (centres undefined), for which the TGI in [2], in experiment [3], in experiment [4], in [5], in experiment [6] and in experiment [7] was greater than 100 µM in each case. The TGI in experiment [8], in experiment [9], in [12], in experiment [19], in experiment [13] and in [15] was greater than 100 µM throughout. For the same compound, the TGI in [17] and in experiment [18] was greater than 100 µM throughout.
Consider `Cc1ccc2c(=O)cc(Cc3cccs3)[nH]c2n1`, for which the TGI in experiment [1], in [2], in experiment [3], in experiment [4], in experiment [5] and in experiment [6] was greater than 100 µM throughout. For the same compound, the TGI in [7], in experiment [8], in [9], in [10], in experiment [11] and in experiment [12] was greater than 100 µM each time. Further, the TGI in experiment [19], in experiment [14], in [16], in experiment [17] and in [18] was greater than 100 µM throughout.
As for `CC(C)(C)OC(=O)N[C@H]1CC(O)c2ccccc2N(CC(=O)O)C1=O` (some centres undefined), the TGI in [2], in experiment [3], in experiment [4], in experiment [5], in [6] and in experiment [7] was greater than 100 µM each time. Further, the TGI in experiment [8], in experiment [9], in [12], in [19], in experiment [14] and in [15] was greater than 100 µM in each case. In addition, the TGI in [16], in [17] and in [18] was greater than 100 µM in each case.
Turning to `CC(=O)OC(CN1CCN(c2ccccn2)CC1)Cn1sc2nc(C)cc(C)c2c1=O` (centres undefined), the TGI in experiment [1] was 67.1 µM; in experiment [2] it was greater than 100 µM; in experiment [3], 32.2 µM; in experiment [4], 45.8 µM; in experiment [5] it was 34.4 µM; in experiment [6] it was 30 µM. Also, the TGI in [7] worked out at 28.1 µM; in experiment [8] it was 32.9 µM; in experiment [9], 22.7 µM; in [10], 33.2 µM; in experiment [11] it was 34 µM; in experiment [12] it was 26.1 µM. Further, the TGI in [19] is greater than 100 µM; in experiment [13] it was 32.2 µM; in experiment [14], 32.8 µM; in [15] it was 35.2 µM; in [16], 50.7 µM; in [17], greater than 100 µM. In experiment [18], this compound showed a TGI of 30.2 µM.
Take `Cc1[nH]c(=O)nc2c1C(NCCCN(C)C)c1cc(Cl)ccc1N2` (centres undefined): the TGI in experiment [2] was 31.2 µM; in [3], 31.5 µM; in experiment [4], 28.1 µM; in [5], 22.2 µM; in experiment [6] it was 26.2 µM; in [7] it was 27.7 µM. Moreover, the TGI in [8] is 30.5 µM; in experiment [9], 28.5 µM; in experiment [19] it was 44.6 µM; in experiment [14] it was 26.2 µM; in [15], 29 µM; in [16] it was 33.6 µM. The TGI in experiment [17] came out at 28.6 µM; in experiment [18], 26.4 µM.
`Oc1ccc([Te]CCNCC[Te]c2ccc(O)cc2)cc1`: the TGI in experiment [2] was greater than 100 µM; in experiment [4], 16.6 µM; in experiment [5], greater than 100 µM; in experiment [6], 45.8 µM; in experiment [7], greater than 100 µM; in [8], greater than 100 µM. For the same compound, the TGI was 26.4 µM in [12]; greater than 100 µM in experiment [19]; 46.6 µM in experiment [13]; 70.8 µM in experiment [14]; 33.9 µM in experiment [15]; greater than 100 µM in experiment [17]. In [18], this compound gave a TGI of 31.7 µM.
Turning to `COC(=O)CCC(NC(=S)N/N=C/c1ccccn1)C(=O)OC` (centres undefined), the TGI in [2], in experiment [3], in experiment [4], in [5], in experiment [6] and in experiment [7] was greater than 100 µM in each case. The TGI in [8], in experiment [9], in experiment [12], in experiment [19], in experiment [13] and in [14] was greater than 100 µM in each case. Moreover, the TGI in experiment [15], in [16], in experiment [17] and in [18] was greater than 100 µM throughout.
In the case of `COc1cccc2ccc(C(=O)c3ccccc3)nc12`, the TGI in experiment [3], in experiment [4], in experiment [6], in experiment [7], in [8] and in experiment [9] was greater than 100 µM each time. In addition, the TGI in experiment [12], in [19], in experiment [14], in experiment [16] and in [17] was greater than 100 µM each time.
On to `COc1cc2c(cc1C[C@H]1[C@@H]3C[C@H]4c5c(c6ccccc6n5C)C[C@@H]([C@@H]3CO[C@]1(C)OC(C)=O)N4C)c1c(n2C)C2C[C@H]3C(C(C)=O)=COC[C@H]3[C@H](C1)N2C`, for which the TGI in experiment [1] is 8.32 µM; in experiment [2] it was greater than 25 µM; in experiment [3], 15.2 µM; in experiment [4] it was greater than 25 µM; in experiment [5], 4.86 µM; in experiment [6], 14.6 µM. The TGI in [7] is 5.89 µM; in experiment [8] it was 24 µM; in [10], 13.3 µM; in experiment [11] it was greater than 25 µM; in experiment [12], 6.79 µM; in experiment [19], greater than 25 µM. Also, the TGI in experiment [13] was greater than 25 µM; in [15] it was 8.21 µM; in experiment [16], 5.98 µM; in experiment [17] it was 11.3 µM; in experiment [18], greater than 25 µM.
With `O=C(CC(CC(=O)Oc1c(Br)cc(Br)cc1C(=O)O)C(=O)Oc1c(Br)cc(Br)cc1C(=O)O)Oc1c(Br)cc(Br)cc1C(=O)O`, the TGI in [2], in experiment [3], in [4], in experiment [5], in [6] and in experiment [7] was greater than 100 µM each time. For the same compound, the TGI in experiment [8] was greater than 100 µM; in experiment [9], 55.4 µM; in experiment [12] it was greater than 100 µM; in experiment [19], greater than 100 µM; in experiment [13], greater than 100 µM; in experiment [14], 93.3 µM. The TGI in experiment [15], in [16], in experiment [17] and in [18] was greater than 100 µM each time.
With `Cc1cc([N+](=O)[O-])ccc1Sc1c2ccccc2nc2cc(Cl)ccc12`, the TGI was greater than 100 µM in experiment [2]; greater than 100 µM in experiment [3]; greater than 100 µM in experiment [4]; greater than 100 µM in experiment [6]; greater than 100 µM in [7]; 89.5 µM in experiment [8]. Besides, the TGI is 78.7 µM in [9]; greater than 100 µM in [12]; 93.7 µM in [19]; greater than 100 µM in [13]; 89.7 µM in [14]; greater than 100 µM in experiment [15]. Besides, the TGI was greater than 100 µM in [16], 93.5 µM in experiment [17] and greater than 100 µM in experiment [18].
For the compound `O=C(C=C1SCCS1)/C=C\c1ccc(Cl)cc1`, the TGI in [2], in experiment [3], in experiment [4], in [5], in [6] and in [7] was greater than 100 µM each time. The TGI in experiment [8], in experiment [9], in experiment [12], in experiment [19], in [13] and in experiment [14] was greater than 100 µM in each case. In addition, the TGI in [16], in experiment [17] and in experiment [18] was greater than 100 µM each time.
Regarding `CC(=O)OC1CC2CCN3C(=O)c4cc5c(cc4[C@H](C1OC(C)=O)C23)OCO5` (some centres undefined), the TGI in [2], in experiment [4], in [5], in experiment [6], in experiment [7] and in experiment [8] was greater than 100 µM each time. The TGI in experiment [9], in experiment [19], in experiment [14], in [15], in experiment [16] and in experiment [17] was greater than 100 µM each time. The same compound registered a TGI in experiment [18] greater than 100 µM.

(Values after PubChem BioAssay (NCI).)
